The text below walks through data of patent US20250099448A1, “HETEROCYCLIC COMPOUNDS” (Hoffmann-La Roche Inc., priority 2022, published 2025).

The test deals with T1, MAGL protein (Homo sapiens, UniProt Q99685).
T1 sequence (Q99685 1-303): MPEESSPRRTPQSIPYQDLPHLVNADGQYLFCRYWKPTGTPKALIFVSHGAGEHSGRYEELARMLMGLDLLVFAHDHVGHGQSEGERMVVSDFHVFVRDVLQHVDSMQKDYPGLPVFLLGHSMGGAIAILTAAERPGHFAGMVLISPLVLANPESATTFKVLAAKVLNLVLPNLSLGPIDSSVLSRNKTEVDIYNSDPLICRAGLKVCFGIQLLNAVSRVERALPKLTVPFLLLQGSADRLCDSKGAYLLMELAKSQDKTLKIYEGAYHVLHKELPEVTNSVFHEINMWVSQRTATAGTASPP
The test can be described thus: 2-AG assay: MAGL inhibitory activity by hydrolysis of 2-arachidonoylglycerol to arachidonic acid, followed by mass spectrometry. Format: biochemical. The note with it: 8 μM 2-arachidonoylglycerol, 15 min preincubation, 30 min reaction at RT, RapidFire MS readout. In a few lines:
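Activity was measured by RapidFire SPE–triple-quad MS as the ratio of arachidonic acid to d8-arachidonic acid after 2-AG hydrolysis (8 μM substrate, 30 min, RT, acetonitrile quench). Compounds, tested from 12.5 μM down to […], were first preincubated 15 min with MAGL in TRIS/EDTA/Tween-20 buffer containing 2.5% DMSO.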

On to `O=C(N1CC(c2ccc(N3CC[C@@H](C(F)(F)F)C3)nc2)C1)N1CC2(CC(c3nnc(C4CC4)[nH]3)C2)C1` [compound 268], for which inhibition was half-maximal at 0.35 nM (IC50).
In the case of `N#Cc1cc(CC2CC3(C2)CN(C(=O)N2CC4(CC(c5nc(C6COC6)n[nH]5)C4)C2)C3)cc(C(F)(F)F)c1` [compound 759], 11 nM corresponded to half-maximal inhibition (IC50).
In turn, `O=C(N1CC2(CC(c3nnc(C4CC4)[nH]3)C2)C1)N1CC2(CC(C(F)(F)c3ccc(C(F)(F)F)nc3)C2)C1` [compound 826] displayed an IC50 of 0.56 nM.
For the molecule `N=S(=O)(c1cccc(C(F)(F)F)c1)C1CCC2(CC1)CN(C(=O)N1CC3(CC(c4nc(C5CC5)n[nH]4)C3)C1)C2` (stereo not drawn) [Example 456], 8.88 nM corresponded to half-maximal inhibition (IC50).
As to `O=C(N1CC(OCc2ccc(C(F)(F)F)cc2F)C1)N1CC2(CC(c3nnc([C@H](O)C(F)(F)F)[nH]3)C2)C1` (single isomer, unassigned) [Example 389], the IC50 turned out to be 15.2 nM.
In the case of `O=C(N1CC2(CC(c3nnc(C4(O)CC4)[nH]3)C2)C1)N1CC2(CN(Cc3ccc(F)cc3F)C2)C1` [compound 157], the IC50 was determined as 15.8 nM.
`O=C(N1CC2(CC(Cc3ncc(F)cc3F)C2)C1)N1CC2(CC(c3nc(C(F)(F)F)n[nH]3)C2)C1` [compound 819] showed an IC50 of 6.59 nM.
Molecule `O=C(N1CC2(CCC(OCC3(C(F)(F)F)CC3)CC2)C1)N1CC2(CC(c3nnc(C4CC4)[nH]3)C2)C1` [compound 65] yielded an IC50 of 1.46 nM.
`Cn1ncc(C(F)(F)F)c1CN1CC2(C1)CN(C(=O)N1CC3(CC(c4nc(C5CC5)n[nH]4)C3)C1)C2` [compound 664] had an IC50 of 2.74 nM.
With `O=C(N1CC2(CCC(S(=O)(=O)c3cccc(C(F)(F)F)c3)CC2)C1)N1CC2(CC(c3nc(C4(O)CC4)n[nH]3)C2)C1` [compound 421] the figure was 50.4 nM; with `O=C(N1CC2(CC(c3nnc(C4CC4)[nH]3)C2)C1)N1CC2(C1)CN(S(=O)(=O)c1ccc(F)cc1Cl)C2` [compound 107], 3.14 nM; with `O=C(N1CC(c2ccc(Oc3ccccc3Cl)nn2)C1)N1CC2(CC(c3nnc(C4CC4)[nH]3)C2)C1` [compound 378], 16.6 nM.
Molecule `O=C(N1CC2(CC(c3nnc(C4CC4)[nH]3)C2)C1)N1CC2(C1)CN(c1cnc(C(F)(F)F)cn1)C2` [compound 218] yielded an IC50 of 172 nM.
For the molecule `O=C(N1CC2(CCN(Cc3ccc(C(F)(F)F)nc3)CC2)C1)N1CC2(CC(c3nnc(C4CC4)[nH]3)C2)C1` [compound 176], the midpoint of inhibition, the IC50, lay at 8.71 nM.
The value for `CS(=O)(=O)c1cccc(CC2CC3(C2)CN(C(=O)N2CC4(CC(c5nnc(C6CC6)[nH]5)C4)C2)C3)c1` [compound 15] was 1.33 nM; that for `O=C(N1CC(C23CC(c4nnc(C5(C(F)(F)F)CC5)o4)(C2)C3)C1)N1CC2(CC(c3nc(C4CC4)n[nH]3)C2)C1` [compound 422] was 14.3 nM; that for `O=C(N1CC2(CC(Cc3ccc(C(F)(F)F)nc3)C2)C1)N1CC2(CC(c3nnc(C4CC4)[nH]3)C2)C1` [compound 5] was 0.16 nM.
With `O=C(N1CC2(CC(Oc3ccc(C(F)(F)F)nc3)C2)C1)N1CC2(CC(c3nnc(C4(O)CC4)[nH]3)C2)C1` [compound 132] the figure was 5.98 nM; with `O=C(N1CC2(CC(Cn3cncc3C3(C(F)(F)F)CC3)C2)C1)N1CC2(CC(c3nc(C4CC4)n[nH]3)C2)C1` [compound 964], 0.44 nM; with `O=C(N1CC(CNS(=O)(=O)c2ccc(C(F)(F)F)cc2)C1)N1CC2(CC(c3nnc(C4(O)CC4)[nH]3)C2)C1` [compound 210], 482 nM.
The value for `O=C(N1CC2(CC(Cc3nccc(C(F)(F)F)n3)C2)C1)N1CC2(CC(c3nc(C4CC4)n[nH]3)C2)C1` [compound 403] was 0.75 nM; that for `CP1(=O)CCN(c2ccc(C3CN(C(=O)N4CC5(CC(c6nnc(C7CC7)[nH]6)C5)C4)C3)cn2)CC1` [compound 53] was 179 nM.
On to `Cc1cc(C(F)F)nn1-c1ccc(C2CN(C(=O)N3CC4(CC(c5nnc(C6CC6)[nH]5)C4)C3)C2)cc1` [compound 285], for which the IC50 was 0.37 nM.
With `O=C(N1CC2(CC(c3nnc(C4CC4)[nH]3)C2)C1)N1CC2(CC(N3CC(CC(F)(F)F)C3)C2)C1` [compound 84] the figure was 32.7 nM; with `CS(=O)(=O)c1ccccc1COC1CN(C(=O)N2CC3(CC(c4nnc(C5CC5)[nH]4)C3)C2)C1` [compound 335], 467 nM; with `N=[S@](=O)(c1ccc(CC2CC3(C2)CN(C(=O)N2CC4(CC(c5nnc(C6CC6)[nH]5)C4)C2)C3)cc1)C(F)(F)F` (single isomer, unassigned) [compound 129], 0.1 nM.
With `O=C(N1CC2(CC(Cc3nc(C(F)(F)F)cs3)C2)C1)N1CC2(CC(c3nc(C4CC4)n[nH]3)C2)C1` [compound 704] the figure was 0.3 nM; with `O=C(N1CC2(CC(Cc3cnc(C(F)(F)F)cn3)C2)C1)N1CC2(CC(c3nnc(C4CC4)[nH]3)C2)C1` [Example 3], 0.69 nM.
Molecule `O=C(N1CC(C23CC(c4ccc(S(=O)(=O)C(F)(F)F)cc4)(C2)C3)C1)N1CC2(CC(c3nc(C4(O)CC4)n[nH]3)C2)C1` [compound 419] returned an IC50 of 0.5 nM.
`O=C(N1CC2(CC(NCC3(C(F)(F)F)CC3)C2)C1)N1CC2(CC(c3nnc(C4CC4)[nH]3)C2)C1` [compound 221] came in with an IC50 of 8.51 nM.
The value for `O=C(N1CC2(CC(Cc3cc(C4(C(F)(F)F)CC4)[nH]n3)C2)C1)N1CC2(CC(c3nc(C4CC4)n[nH]3)C2)C1` [compound 945] was 0.07 nM.
The value for `CC(C)(C)CS(=O)(=O)N1CC2(CN(C(=O)N3CC4(CC(c5nnc(C6CC6)[nH]5)C4)C3)C2)C1` [compound 212] was 58.1 nM; that for `O=C(N1CC2(CC(c3nc(C4CC4)n[nH]3)C2)C1)N1CC2(CN(Cc3ccc[nH]c3=O)C2)C1` [compound 718] was 550 nM; that for `N#Cc1cc(C2CC2)ccc1OC1CN(C(=O)N2CC3(CC(c4nnc(C5(O)CC5)[nH]4)C3)C2)C1` [compound 317] was 7.18 nM.
Regarding `O=C(N1CC2(CC(c3nc(C4(F)CC4)n[nH]3)C2)C1)N1CC2(CN(Cc3ccc(S(=O)(=O)C(F)(F)F)cc3)C2)C1` [compound 427], the IC50 was 1.33 nM.
With `O=C(N1CC2(CC(Cc3nnc(C4(C(F)(F)F)CC4)o3)C2)C1)N1CC2(CC(c3nc(C4(F)CC4)n[nH]3)C2)C1` [compound 792] the figure was 1.98 nM; with `O=C(N1CC2(CC(Cc3cnc4cc(C(F)(F)F)nn4c3)C2)C1)N1CC2(CC(c3nc(C4CC4)n[nH]3)C2)C1` [compound 996], 0.6 nM.
With `O=C(N1CC2(CC(c3nnc(C4CC4)[nH]3)C2)C1)N1CC2(C1)CN(S(=O)(=O)NCc1ccc(F)cc1)C2` [compound 214] the figure was 19.9 nM; with `CC1(NCC2CC3(C2)CN(C(=O)N2CC4(CC(c5nnc(C6CC6)[nH]5)C4)C2)C3)CS(=O)(=O)C1` [compound 357], 25.6 nM.
The value for `O=C(N1CC2(CC(NS(=O)(=O)c3ccccc3C(F)(F)F)C2)C1)N1CC2(CC(c3nnc(C4CC4)[nH]3)C2)C1` [compound 224] was 0.7 nM.
In turn, `O=C(N1CC(c2ccc(-n3nc(C(F)F)cc3C3CC3)cc2)C1)N1CC2(CC(c3nnc(C4CC4)[nH]3)C2)C1` [compound 839] came in with an IC50 of 0.27 nM.
The molecule `Cc1nc(CN2CCN(C(=O)N3CC4(CC(c5nc(C6CC6)n[nH]5)C4)C3)CC2)co1` [Example 879, [6-(3-cyclopropyl-1H-1,2,4-triazol-5-yl)-2-azaspiro[3.3]heptan-2-yl]-[4-[(2-methyloxazol-4-yl)methyl]piperazino]methanone] registered an IC50 of 300 nM.
The value for `CS(=O)(=O)c1cc(Cl)ccc1CC1CC2(CCN(C(=O)N3CC4(CC(c5nnc(C6CC6)[nH]5)C4)C3)C2)C1` (stereo not drawn) [Example 414, [2-(4-chloro-2-mesyl-benzyl)-6-azaspiro[3.4]octan-6-yl]-[6-(5-cyclopropyl-4H-1,2,4-triazol-3-yl)-2-azaspiro[3.3]heptan-2-yl]methanone] was 38.1 nM; that for `O=C(N1CC(CNS(=O)(=O)c2cccc(C(F)(F)F)c2)C1)N1CC2(CC(c3nnc(C4CC4)[nH]3)C2)C1` [compound 208] was 21.6 nM.
With `Cn1cc(-c2ccc(C3CN(C(=O)N4CC5(CC(c6nc(C7(O)CC7)n[nH]6)C5)C4)C3)cc2)c(C(F)(F)F)n1` [compound 823] the figure was 0.21 nM; with `O=C(N1CC2(CC(Cc3cn(C4CC4)nc3C(F)(F)F)C2)C1)N1CC2(CC(c3nc(C4CC4)n[nH]3)C2)C1` [compound 405], 0.57 nM.
The value for `O=C(N1CC2(CCC(Cc3ccc(Cl)cn3)CC2)C1)N1CC2(CC(c3nc(C4CC(F)(F)C4)n[nH]3)C2)C1` [compound 756] was 98.5 nM; that for `N=[S@](=O)(c1cccc(CC2CC3(C2)CN(C(=O)N2CC4(CC(c5nnc(C6CC6)[nH]5)C4)C2)C3)c1)C(F)(F)F` (single isomer, unassigned) [compound 126] was 0.06 nM.
In turn, `O=C(N1CC2(CC(c3nnc(C4CC4)[nH]3)C2)C1)N1CC2(CN(Cc3ccc(F)cc3C(F)(F)F)C2)C1` [compound 169] displayed an IC50 of 0.62 nM.
`O=C(N1CC(c2ccc([C@H]3C[C@H](C(F)F)C3)cc2)C1)N1CC2(CC(c3nnc(C4CC4)[nH]3)C2)C1` (single isomer, unassigned) [Example 304, Trans-[6-(5-Cyclopropyl-4H-1,2,4-triazol-3-yl)-2-azaspiro[3.3]heptan-2-yl]-[3-[4-[3-(difluoromethyl)cyclobutyl]phenyl]azetidin-1-yl]methanone] returned an IC50 of 0.18 nM.
As to `O=C(N1CC2(CC(Cc3cccc(S(=O)(=O)C(F)(F)F)c3)C2)C1)N1CC2(CC(c3nc(C4(F)CC4)n[nH]3)C2)C1` [compound 627], the IC50 amounted to 0.05 nM.

The term IC50 denotes the midpoint of a concentration-inhibition curve. A lower IC50 goes with higher potency.
